Test results from patent publication US10266497B2 (ABIDE THERAPEUTICS, INC., priority 2017, dated 2019).

Experiments:
MAGL [1] = target: T1, MAGL (Homo sapiens, UniProt Q99685); experiment: In vitro competitive activity-based protein profiling, MAGL, human; settings: for inhibition at 1 µM: read-out: MAGL % inh. 1 μM (human); for inhibition at 10 µM: read-out: MAGL % inh. (human) at 10 uM
T1 sequence (Q99685 1-303): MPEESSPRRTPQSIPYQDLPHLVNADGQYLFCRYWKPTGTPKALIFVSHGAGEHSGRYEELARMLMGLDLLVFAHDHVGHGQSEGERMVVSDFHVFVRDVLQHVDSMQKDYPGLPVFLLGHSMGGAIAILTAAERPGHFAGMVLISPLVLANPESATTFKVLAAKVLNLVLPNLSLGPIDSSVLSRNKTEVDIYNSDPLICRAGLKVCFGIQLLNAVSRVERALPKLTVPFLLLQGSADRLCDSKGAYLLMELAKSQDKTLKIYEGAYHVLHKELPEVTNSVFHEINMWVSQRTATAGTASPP
Description: Biological Evaluation In Vitro Competitive Activity-Based Protein Profiling.
Proteomes (mouse brain membrane fraction for mouse assays; human prefrontal cortex membrane fractions for human assays) (50 mL, 1.0 mg/mL total protein concentration) were preincubated with varying concentrations of inhibitors at 37° C. After 30 min, FP-Rh (1.0 mL, 50 mM in DMSO) was added and the mixture was incubated for another 30 min at 37° C. Reactions were quenched with SDS loading buffer (15 μL—4λ) and run on SDS-PAGE.

MAGL [2] = target: T2, MAGL (Mus musculus, UniProt O35678); experiment: In vitro competitive activity-based protein profiling, MAGL, mouse; settings: read-out: MAGL % inh. 1 μM (mouse)
T2 sequence (O35678 1-303): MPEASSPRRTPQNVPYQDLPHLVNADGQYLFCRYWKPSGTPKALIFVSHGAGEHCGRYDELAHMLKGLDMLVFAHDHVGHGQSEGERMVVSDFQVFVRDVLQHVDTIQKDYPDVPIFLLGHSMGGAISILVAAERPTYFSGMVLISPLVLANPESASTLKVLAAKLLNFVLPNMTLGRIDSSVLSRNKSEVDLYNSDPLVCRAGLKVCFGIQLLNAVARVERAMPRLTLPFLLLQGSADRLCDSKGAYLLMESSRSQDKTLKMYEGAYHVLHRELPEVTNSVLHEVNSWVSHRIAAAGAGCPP

SMILES	inhibition at 1 µM (MAGL [1]) [%]	inhibition at 1 µM (MAGL [2]) [%]	inhibition at 10 µM (MAGL [1]) [%]
CCOc1cc(CN2CCC3(CCN(C(=O)n4ccc(C(=O)O)n4)CC3)C2)ccc1Cl [Example 21, 1-(2-(4-chloro-3-ethoxybenzyl)-2,8-diazaspiro[4.5]decane-8-carbonyl)-1H-pyrazole-3-carboxylic acid]	25 to 50	25 to 50	–
NC(=O)c1ccn(C(=O)N2CCC3(CCCN3Cc3cc4ccc(C(F)(F)F)cc4s3)CC2)n1 [Example 22, 1-(1-((6-(Trifluoromethyl)benzo[b]thiophen-2-yl)methyl)-1,8-diazaspiro[4.5]decane-8-carbonyl)-1H-pyrazole-3-carboxamide]	> 75	> 75	–
C[C@H]1C[C@@H](N(C)Cc2cccc(C(F)(F)F)c2)CCN1C(=O)n1ccc(C(N)=O)n1 [Example 24, 1-((2S,4S)-2-Methyl-4-(methyl(3-(trifluoromethyl)benzyl)amino)piperidine-1-carbonyl)-1H-pyrazole-3-carboxamide]	> 75	> 75	–
O=C(O)c1ccn(C(=O)N2CCC(OCc3cc(Cl)cc(Oc4ccc(Cl)cc4)c3)CC2)n1 [Example 27, 1-(4-((3-Chloro-5-(4-chlorophenoxy)benzyl)oxy)piperidine-1-carbonyl)-1H-pyrazole-3-carboxylic Acid]	> 75	> 75	–
O=C(O)c1ccn(C(=O)N2CCC3(CCN(Cc4cccc(Oc5cncnc5)c4)C3)CC2)n1 [Example 31, 1-(2-(3-(Pyrimidin-5-yloxy)benzyl)-2,8-diazaspiro[4.5]decane-8-carbonyl)-1H-pyrazole-3-carboxylic Acid]	0 to 25	50 to 75	–
O=C(O)c1ccn(C(=O)N2C[C@H]3C[C@H](OCc4cccc(C5CCCC5)c4)C[C@H]3C2)n1 [Example 34, 1-(trans-5-((3-Cyclopentylbenzyl)oxy)octahydrocyclopenta[c]pyrrole-2-carbonyl)-1H-pyrazole-3-carboxylic Acid]	> 75	> 75	–
CC(C)(O)COc1cccc(CN2CCN(C(=O)n3ccc(C(N)=O)n3)CC2)c1Cl [Example 37, 1-(4-(2-Chloro-3-(2-hydroxy-2-methylpropoxy)benzyl)piperazine-1-carbonyl)-1H-pyrazole-3-carboxamide]	> 75	> 75	–
CC(C)(O)COc1cccc(CN2CCN(C(=O)n3ccc(C(=O)O)n3)CC2)c1Cl [Example 213, 1-(4-(2-chloro-3-(2-hydroxy-2-methylpropoxy)benzyl)piperazine-1-carbonyl)-1H-pyrazole-3-carboxylic acid]	> 75	> 75	–
C[C@@H]1CN(Cc2cccc(OCC(C)(C)O)c2Cl)CCN1C(=O)n1ccc(C(N)=O)n1 [Example 216, (R)-1-(4-(2-chloro-3-(2-hydroxy-2-methylpropoxy)benzyl)-2-methylpiperazine-1-carbonyl)-1H-pyrazole-3-carboxamide]	> 75	> 75	–
O=C(O)c1ccn(C(=O)N2CCC3(CCN(Cc4cc(Cl)ccc4C(F)(F)F)CC3)CC2)n1 [Example 217, 1-(9-(5-chloro-2-(trifluoromethyl)benzyl)-3,9-diazaspiro[5.5]undecane-3-carbonyl)-1H-pyrazole-3-carboxylic acid]	> 75	> 75	–
O=C(O)c1ccn(C(=O)N2C[C@H]3C[C@H](Oc4cccc(C5CC5)c4)C[C@H]3C2)n1 [Example 219, 1-(trans-5-(3-cyclopropylphenoxy)octahydrocyclopenta [c]pyrrole-2-carbonyl)-1H-pyrazole-3-carboxylic acid]	> 75	> 75	–
CC(C)c1ccccc1O[C@H]1C[C@@H]2CN(C(=O)n3ccc(C(=O)O)n3)C[C@@H]2C1 [Example 221, 1-(trans-5-(2-isopropylphenoxy)octahydrocyclopenta [c]pyrrole-2-carbonyl)-1H-pyrazole-3-carboxylic acid]	> 75	> 75	–
O=C(O)c1ccn(C(=O)N2C[C@H]3C[C@H](Oc4cc(F)cc(Cl)c4)C[C@H]3C2)n1 [Example 222, 1-(trans-5-(3-chloro-5-fluorophenoxy)octa-hydrocyclopenta[c]pyrrole-2-carbonyl)-1H-pyrazole-3-carboxylic acid]	> 75	> 75	–
Cc1ccc(C)c(CN2CCC3(CCN(C(=O)n4ccc(C(=O)O)n4)CC3)C2)c1 [Example 223, 1-(2-(2,5-dimethylbenzyl)-2,8-diazaspiro[4.5]decane-8-carbonyl)-1H-pyrazole-3-carboxylic acid]	> 75	0 to 25	–
O=C(O)c1ccn(C(=O)N2CCC(OCc3cc(Cl)cc(Cl)c3)CC2)n1 [Example 224, 1-(4-((3,5-dichlorobenzyl)oxy)piperidine-1-carbonyl)-1H-pyrazole-3-carboxylic acid]	> 75	> 75	–
O=C(O)c1ccn(C(=O)N2CCC(OCc3cccc(N4CCCC4)c3)CC2)n1 [Example 226, 1-(4-((3-(pyrrolidin-1-yl)benzyl)oxy)piper-idine-1-carbonyl)-1H-pyrazole-3-carboxylic acid]	> 75	> 75	–
O=C(O)c1ccn(C(=O)N2CCC3(CCN(Cc4cccc(Cl)c4)C3)CC2)n1 [Example 227, 1-(2-(3-chlorobenzyl)-2,8-diazaspiro[4.5]decane-8-carbonyl)-1H-pyrazole-3-carboxylic acid]	> 75	25 to 50	–
O=C(O)c1ccn(C(=O)N2CCN(Cc3cccc(Oc4cccnn4)c3)CC2)n1 [Example 229, 1-(4-(3-(pyridazin-3-yloxy)benzyl)piper-azine-1-carbonyl)-1H-pyrazole-3-carboxylic acid]	25 to 50	0 to 25	–
O=C(O)c1ccn(C(=O)N2C[C@H]3C[C@H](Oc4cccc(C(F)(F)F)c4)C[C@H]3C2)n1 [Example 231, 1-(trans-5-(3-(trifluoromethyl)phenoxy)octahydro-cyclopenta[c]pyrrole-2-carbonyl)-1H-pyrazole-3-carboxylic acid]	> 75	> 75	–
O=C(O)c1ccn(C(=O)N2C[C@H]3C[C@H](Oc4cccc(C5CCCC5)c4)C[C@H]3C2)n1 [Example 232, 1-(trans-5-(3-cyclopentylphenoxy)octahydrocyclopenta [c]pyrrole-2-carbonyl)-1H-pyrazole-3-carboxylic acid]	> 75	> 75	–
O=C(O)c1ccn(C(=O)N2C[C@H]3C[C@H](Oc4cccc(N5CCCC5)c4)C[C@H]3C2)n1 [Example 234, 1-(trans-5-(3-(pyrrolidin-1-yl)phenoxy)octa-hydrocyclopenta[c]pyrrole-2-carbonyl)-1H-pyrazole-3-carboxylic acid]	> 75	> 75	–
Cc1c(COC2CCN(C(=O)n3ccc(C(=O)O)n3)CC2)cccc1C(F)(F)F [Example 235, 1-(4-((2-methyl-3-(trifluoromethyl)benzyl)oxy)piper-idine-1-carbonyl)-1H-pyrazole-3-carboxylic acid]	> 75	> 75	–
Cc1ccc(COC2CCN(C(=O)n3ccc(C(=O)O)n3)CC2)cc1C(F)(F)F [Example 236, 1-(4-((4-methyl-3-(trifluoromethyl)benzyl)oxy)piper-idine-1-carbonyl)-1H-pyrazole-3-carboxylic acid]	> 75	> 75	–
O=C(O)c1ccn(C(=O)N2C[C@H]3C[C@H](Oc4ccccc4-c4ccccc4)C[C@H]3C2)n1 [Example 239, 1-(trans-5-([1,1′-biphenyl]-2-yloxy)octahydro-cyclopenta[c]pyrrole-2-carbonyl)-1H-pyrazole-3-carboxylic acid]	> 75	> 75	–
O=C(O)c1ccn(C(=O)N2C[C@H]3C[C@H](Oc4ccc(-c5ccccc5)cc4)C[C@H]3C2)n1 [Example 240, 1-(trans-5-([1,1′-biphenyl]-4-yloxy)octahydro-cyclopenta[c]pyrrole-2-carbonyl)-1H-pyrazole-3-carboxylic acid]	> 75	> 75	–
O=C(O)c1ccn(C(=O)N2C[C@H]3C[C@H](NCc4cccc(-c5ccccc5)c4)C[C@H]3C2)n1 [Example 273, 1-(trans-5-(([1,1′-biphenyl]-3-ylmethyl)amino)octahydrocyclopenta [c]pyrrole-2-carbonyl)-1H-pyrazole-3-carboxylic acid]	–	–	> 75
O=C(O)c1ccn(C(=O)N2C[C@H]3C[C@H](OCc4cccc(-c5cscn5)c4Cl)C[C@H]3C2)n1 [Example 447, 1-(trans-5-((2-chloro-3-(thiazol-4-yl)benzyl)oxy)octa-hydrocyclopenta[c]pyrrole-2-carbonyl)-1H-pyrazole-3-carboxylic acid]	–	–	> 75
